Source: patent US6664231B1, “Anti-fungal peptides” (priority 1993, dated 2003)

Key:
[1] = system: Candida albicans SLU-1 strain; experiment: Serum stability, anti-fungal activity after serum incubation by radial diffusion bioassay; type: in vitro ADME, rat or human serum
How it was run: (§1)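 Peptide at 1 mg/mL mixed with an equal volume of rat or human serum and held at 37° C. Samples taken at 0, 1, 2 and 4 h, extracted on C-18 solid phase, then analysed by HPLC, N-terminal sequencing and ESI/MS. Recovered peptides tested against C. albicans SLU-1 by radial diffusion.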

[2] = system: Candida lusitaniae; experiment: Radial diffusion assay, Candida species (Table 2); type: cell-based
Description: (§2) The anti-fungal activity of Domain III derived peptides was also evaluated in vitro against a variety of fungal species, including Candida glabrata, Candida krusei, Candida lusitaniae, Candida parapsilosis, and Candida tropicalis. For these experiments, one colony of each of the above-listed Candida strains was picked from a Sabouraud's dextrose agar (SDA) plate and inoculated into 5 mL of Sabouraud's dextrose broth (SDB, 2% dextrose and 1% neopeptone) or, for C. krusei, Yeast Malt broth (YM, Becton Dickenson, Cockeysville, Md., cat no. BL 11405) in 12 mL polyproplyene snap-cap tubes. The tube cultures were incubated overnight with shaking at 37° C.
(§3) Cultures were harvested when the OD570 of a 1:10 dilution was greater than or equal to the following values: 0.083 for Candida glabrata, 0.154 for Candida krusei, 0.117 for Candida lusitaniae, 0.076 for Candida parapsilosis, and 0.192 for Candida tropicalis. Cells were centrifuged for 7 minutes in an Eppendorf microfuge at 3,000 rpm (about 1,500 g). The cell pellet was resuspended in 1 mL PBS and approximately 1×10^7 cells in about 0.5 mL were added to 10 mL of cooled underlay agar (3% SBD, 1% agarose, 0.02% Tween 20, 10 mM sodium phosphate buffer, pH 7.4 at about 45° C.). The suspension was poured into square petri plates, allowed to solidify, and wells cut as described above.
(§4) Peptides were two-fold serially diluted with D-PBS from about 20 μL of a starting concentration of approximately 1 mg/mL. Five μL of peptide dilution were added per well and allowed to diffuse for at least about 30 minutes into the agar at […] (to allow complete diffusion). Then 10 mL of molten overlayer agarose (6% SDB, 1% agarose, 10 mM sodium phosphate buffer, pH 7.4 at about 45° C.) were added and the plates were incubated inverted at […] overnight. Plates were stained with a dilute Coomassie solution, inhibition zones were measured with calipers and net areas were calculated, then converted to pmole values by PROBIT analysis.

[3] = system: Candida glabrata; experiment: Radial diffusion assay, Candida species (Table 2); type: cell-based
Description: as §2, §3, §4

[4] = system: Candida tropicalis; experiment: Radial diffusion assay, Candida species (Table 2); type: cell-based
Description: as §2, §3, §4

[5] = system: Candida krusei; experiment: Radial diffusion assay, Candida species (Table 2); type: cell-based
Description: as §2, §3, §4

[6] = system: Candida parapsilosis; experiment: Radial diffusion assay, Candida species (Table 2); type: cell-based
Description: as §2, §3, §4

[7] = type: physicochemical; details: 37° C., at 50 days, acetate buffered saline
Description: The lyophilized peptide was dissolved to a concentration of 1 mg/mL in three different buffers. The three formulation buffers used were (a) 10 mM solution acetate, 150 mM sodium chloride pH 4, (b) 10 mM sodium acetate, 150 mM sodium chloride pH 5 and (c) 10 mM sodium acetate, 150 mM sodium chloride pH 6. The formulated peptide samples were incubated at 4° C. and 37C. At each time point, samples were withdrawn from each vial and assayed by C18 reverse phase BPLC, absorbance at 280 nm, and SDS-PAGE. The study was conducted for 50 days.
A 0.46×25 cm Vydac C18 column (cat no. 218TP54) was used on a Shimadzu HPLC system. The column was run in binary gradient mobile phases: A=Water+0.05% TFA, B=acetonitrile+0.05% TFA. […]
Samples were analyzed by SDS polyacrylamide gel electrophoresis, run on Novex 10-20% tricine precast gels (Novex, La Jolla, Calif., EC6625). […] In addition, samples were analyzed photometrically. For this, samples withdrawn at each time point were diluted 6-fold with Millipore water and absorbance was measured at 280 nm and scanning from 210 nm to 340 nm using a Shimadzu UV 160 spectrophotometer. AU samples were filtered prior to absorbance measurement(s).
XMP.284 was soluble in water and unbuffered saline. […] There was very little product loss, as measured by absorbance at 280 nm, in 0.15 M saline buffered with 10 mM acetate at pH 4, 5 or 6. […]

[8] = Serum stability, anti-fungal activity after serum incubation by radial diffusion bioassay; type: in vitro ADME, rat or human serum; details: Activity in Serum t ½ (hr.)
How it was run: as §1

Molecule	Activity in Serum t ½ (hr.) [1]	Anti-fungal activity: pmol/30 mm^2 zone, Candida lusitaniae [2] [pmol/30 mm^2 zone]	Anti-fungal activity: pmol/30 mm^2 zone, Candida glabrata [3]	Anti-fungal activity: pmol/30 mm^2 zone, Candida tropicalis [4] [pmol/30 mm^2 zone]	Anti-fungal activity: pmol/30 mm^2 zone, Candida krusei [5]	Anti-fungal activity: pmol/30 mm^2 zone, Candida parapsilosis [6]	new HPLC peaks accumulated [7]	half-life at 0.5 mg/mL [8] [h]
H-KSKVGWLIQLFHKK-NH2 [XMP.13]	indefinite	746	1,022 pmol/30 mm^2 zone	452	1,747 pmol/30 mm^2 zone	1,502 pmol/30 mm^2 zone		
H-SKVKWLIQLFHKK-NH2 [XMP.284]							less than 0.5%	14.6
C[C@@H]1[C@H](O)[C@@H](C)/C=C/C=C/C=C/C=C/C=C/C=C/C=C/[C@H](O[C@@H]2O[C@H](C)[C@@H](O)[C@H](N)[C@@H]2O)C[C@@H]2O[C@](O)(C[C@@H](O)C[C@@H](O)[C@H](O)CC[C@@H](O)C[C@@H](O)CC(=O)O[C@H]1C)C[C@H](O)[C@H]2C(=O)O [Amphotericin B, amphotericin B, reference compound]		35	<17 pmol/30 mm^2 zone	108	120 pmol/30 mm^2 zone	91 pmol/30 mm^2 zone		
